Consider 17 molecules from patent US12037325B2, “1,2-diaminobenzimidazole derivative” (Carna Biosciences, Inc., priority 2021, dated 2024).

SMILES strings stand for the structures. Where a name gives a salt, the structure may show the parent alone.

In experiment [1] the target is T1, hSTING (Homo sapiens, UniProt Q86WV6).
T1 construct: host or cells: HEK-Blue ISG cells (HEK293-derived SEAP reporter line)
Put plainly: Inhibition test of intracellular human STING (hSTING) pathways using reporter cells (HEK-Blue ISG, SEAP reporter). The following applies: stimulation with Compound 3 (10 nM), 21 hours, read-out: Inhibitory Activity on hSTING. The format is cell-based. How it is done:
Since STING activates the transcription factor IRF3 by ligand stimulation, the activity of STING can be evaluated by a reporter assay using a secreted alkaline phosphatase (SEAP reporter) incorporated downstream of the IRF-inducible promoter. In other words, the hSTING inhibitory activity of the test compounds was evaluated using HEK-Blue™ ISG cells (manufactured by InvivoGen, #hkb-isg-1) into which the SEAP reporter was incorporated. The activation of hSTING was performed by stimulation with the small molecule ligand, Compound 3 as described in the literature (Ramanjulu, J. M., et al., Nature. 2018, 564 (7736), 439-443).
The HEK-Blue™ ISG cells were seeded in 96-well plates and cultured overnight at 37° C. in a 5% CO2 incubator. To each well of the cell culture plates, a test compound solution adjusted to have a final concentration of 0.1 to 10 μM was added and cultured in the CO2 incubator for 1 hour. Then, the Compound 3 (final concentration of 10 nM) was added thereto and further cultured in the CO2 incubator for 21 hours. After collecting the culture supernatant from each well, the reporter activity was measured by luminous reaction of alkaline phosphatase.
Method for Evaluating Inhibitory Activity. Taking the reporter activity in the group without test compounds added and with Compound 3 added as 100% and the reporter activity in the group without test compounds added and without Compound 3 added as 0%, IC50 values were determined by regression analysis of the inhibition rate calculated from the reporter activity at each compound concentration and the test compound concentration (logarithm).
Evaluation Result. […] The inhibitory effect on the hSTING was indicated by marking an IC50 value of less than 0.1 μM with ***, that of 0.1 μM or more and less than 1 μM with **, that of 1 μM or more and less than 10 μM with *, and that of 10 μM or more with “-”.

Experiment [2] concerns the target T2, STING (Homo sapiens, UniProt Q86WV6, G230A/H232R/R293Q/R71H).
T2 construct: host or cells: THP-1 cells, PMA-treated
Put plainly: Inhibition test of human IFN-β production by cGAMP stimulation in THP-1 cells. The format is cell-based. The following applies: PMA-treated THP-1 cells, 2'3'-cGAMP transfection, 18 hours, ELISA of culture supernatant; read-out: Inhibitory effect on the IFN-β production. Here is the method: The human monocytic cell line THP-1 cells were used to measure the amount of IFN-β produced when stimulated with the endogenous ligand cGAMP, thereby evaluating the inhibitory activity of the test compounds on STING activation.
After THP-1 cells (manufactured by ATCC) were seeded in 96-well plates, PMA (manufactured by Santa Cruz Biotechnology, Inc.) adjusted to a concentration after addition of 100 nM was added and cultured overnight at a 37° C. in a 5% CO2 incubator (10% FBS, 50 U/mL penicillin/50 μg/mL streptomycin-containing RPMI 1640 medium). To each well of the plate, a test compound solution adjusted to a final concentration of 0.001-1 μM of the test compound was added and cultured in the CO2 incubator for 1 hour (DMSO final concentration of 0.1%). 0.12 μg/well of 2′3′-cGAMP (manufactured by ChemieTek, #CT-CGAMP) was introduced into the cells by transfection method using Lipofectamine 2000 (manufactured by Invitrogen) and cultured in the CO2 incubator for another 18 hours. After collecting the culture supernatant from each well, the amount of human IFN-P production in the culture supernatant was measured by ELISA method using R&D human IFN-β Duoset (manufactured by R&D systems).
Method for Evaluating Inhibitory Activity. Taking the amount of human IFN-β production in the group without test compounds added and with cGAMP added as 100% and the amount of human IFN-β production in the group without test compounds added and without cGAMP added as 0%, IC50 values were determined by regression analysis of the inhibition rate calculated from the amount of human IFN-β production at each compound concentration and the test compound concentration (logarithm).
Evaluation Result. […] The inhibitory effect on the IFN-β production was indicated by marking an IC50 value of less than 0.01 μM with ***, that of 0.01 μM or more and less than 0.1 μM with **, that of 0.1 μM or more and less than 1 μM with *, and that of 1 μM or more with “-”, and NT was marked as unmeasured.

T2 sequence (Q86WV6 whole entry R71H/G230A/H232R/R293Q): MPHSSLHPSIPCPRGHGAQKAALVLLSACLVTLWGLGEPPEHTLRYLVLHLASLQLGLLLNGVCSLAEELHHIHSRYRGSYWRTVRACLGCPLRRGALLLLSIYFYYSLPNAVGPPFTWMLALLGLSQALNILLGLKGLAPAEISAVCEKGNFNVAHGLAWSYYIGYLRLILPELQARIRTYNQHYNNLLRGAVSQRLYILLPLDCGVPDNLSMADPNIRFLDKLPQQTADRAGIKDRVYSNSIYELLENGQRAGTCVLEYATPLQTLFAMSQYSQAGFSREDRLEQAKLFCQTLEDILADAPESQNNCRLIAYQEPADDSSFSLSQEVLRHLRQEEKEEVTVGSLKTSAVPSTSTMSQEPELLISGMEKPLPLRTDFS
T1 sequence (Q86WV6 whole entry H232R): as the sequence (Q86WV6 whole entry R71H/G230A/H232R/R293Q) above, with H71R, A230G, Q293R counted along it

For the molecule `CCNn1c(Nc2c[nH]c3cc(F)c(F)cc23)nc2cc(C(F)(F)F)cc(F)c21` [Example 23, N2-(5,6-difluoro-1H-indol-3-yl)-N1-ethyl-7-fluoro-5-(trifluoromethyl)-1H-benzo[d]imidazole-1,2-diamine hydrochloride], the IC50 was < 100 nM in experiment [1] and 10 to 100 nM in experiment [2].

Turning to `Nn1c(Nc2c[nH]c3ccc(Cl)cc23)nc2cc(C(F)(F)F)c(F)cc21` [Example 7, N2-(5-chloro-1H-indol-3-yl)-6-fluoro-5-(trifluoromethyl)-1H-benzo[d]imidazole-1,2-diamine hydrochloride], the IC50 in experiment [1] is < 100 nM; in experiment [2], < 10 nM.

On to `CNn1c(Nc2c[nH]c3ccc(Cl)nc23)nc2cc(C(F)(F)F)ccc21` [Example 26, N2-(5-chloro-1H-pyrrolo[3,2-b]pyridin-3-yl)-N1-methyl-5-(trifluoromethyl)-1H-benzo[d]imidazole-1,2-diamine hydrochloride], for which the IC50 in experiment [1] was in the range of 1000 to 10000 nM; in experiment [2], 100 to 1000 nM.

`Nn1c(Nc2c[nH]c3ccc(F)cc23)nc2cc(C(F)(F)F)ccc21` [Example 28, N2-(5-fluoro-1H-indol-3-yl)-5-(trifluoromethyl)-1H-benzo[d]imidazole-1,2-diamine]: the IC50 in experiment [1] was in the range of 100 to 1000 nM; in experiment [2], 10 to 100 nM.

With `Nn1c(Nc2c[nH]c3ccc(F)c(F)c23)nc2cc(C(F)(F)F)ccc21` [Example 11, N2-(4,5-difluoro-1H-indol-3-yl)-5-(trifluoromethyl)-1H-benzo[d]imidazole-1,2-diamine hydrochloride], the IC50 in experiment [1] was in the range of 100 to 1000 nM; in experiment [2], 10 to 100 nM.

Turning to `CNn1c(Nc2c[nH]c3ncc(Cl)cc23)nc2cc(C(F)(F)F)ccc21` [Example 27, N2-(5-chloro-1H-pyrrolo[2,3-b]pyridin-3-yl)-N1-methyl-5-(trifluoromethyl)-1H-benzo[d]imidazole-1,2-diamine hydrochloride], the IC50 in experiment [1] and in experiment [2] was 100 to 1000 nM throughout.

In the case of `Nn1c(Nc2c[nH]c3ccc(Cl)cc23)nc2cc(C(F)(F)F)ccc21` [Example 1, N2-(5-chloro-1H-indol-3-yl)-5-(trifluoromethyl)-1H-benzo[d]imidazol-1,2-diamine Hydrochloride], the values for the IC50 in experiment [1] and in experiment [2] were < 100 nM and < 10 nM, respectively.

As to `Nn1c(Nc2c[nH]c3cc(F)c(F)cc23)nc2cc(C(F)(F)F)ccc21` [Example 2, N2-(5,6-difluoro-1H-indol-3-yl)-5-(trifluoromethyl)-1H-benzo[d]imidazol-1,2-diamine Formate], the IC50 in experiment [1] was < 100 nM; in experiment [2], < 10 nM.

Turning to `CNn1c(Nc2c[nH]c3ccc(F)c(F)c23)nc2cc(C(F)(F)F)c(F)cc21` [Example 12, N2-(4,5-difluoro-1H-indol-3-yl)-6-fluoro-N1-methyl-5-(trifluoromethyl)-1H-benzo[d]imidazole-1,2-diamine hydrochloride], the IC50 is 1000 to 10000 nM in experiment [1] and > 1000 nM in experiment [2].

For the molecule `CCNn1c(Nc2c[nH]c3cc(F)c(F)cc23)nc2cc(C(F)(F)F)ccc21` [Example 15, N2-(5,6-difluoro-1H-indol-3-yl)-N1-ethyl-5-(trifluoromethyl)-1H-benzo[d]imidazole-1,2-diamine], the IC50 in experiment [1] was < 100 nM; in experiment [2], < 10 nM.

In the case of `Cl.[2H]C([2H])([2H])Nn1c(Nc2c[nH]c3ccc(Cl)cc23)nc2cc(C(F)(F)F)ccc21` [Example 25, N2-(5-chloro-1H-indol-3-yl)-N1-(methyl-d3)-5-(trifluoromethyl)-1H-benzo[d]imidazole-1,2-diamine hydrochloride], the IC50 was < 100 nM in experiment [1] and < 10 nM in experiment [2].

In the case of `CCNn1c(Nc2c[nH]c3ccc(Cl)cc23)nc2cc(C(F)(F)F)ccc21` [Example 6, N2-(5-chloro-1H-indol-3-yl)-N1-ethyl-5-(trifluoromethyl)-1H-benzo[d]imidazol-1,2-diamine Hydrochloride], the IC50 in experiment [1] is < 100 nM; in experiment [2] it was < 10 nM.

As to `CNn1c(Nc2c[nH]c3cc(F)c(F)cc23)nc2cc(C(F)(F)F)ccc21` [Example 4, N2-(5,6-difluoro-1H-indol-3-yl)-N1-methyl-5-(trifluoromethyl)-1H-benzo[d]imidazol-1,2-diamine], the IC50 in experiment [1] is < 100 nM; in experiment [2], < 10 nM.

Take `CNn1c(Nc2c[nH]c3cc(F)c(C)cc23)nc2cc(C(F)(F)F)ccc21` [Example 18, N2-(6-fluoro-5-methyl-1H-indol-3-yl)-N1-methyl-5-(trifluoromethyl)-1H-benzo[d]imidazole-1,2-diamine]: the IC50 in experiment [1] was < 100 nM; in experiment [2], < 10 nM.

On to `Nn1c(Nc2c[nH]c3c(F)cc(F)cc23)nc2cc(C(F)(F)F)ccc21` [Example 21, N2-(5,7-difluoro-1H-indol-3-yl)-5-(trifluoromethyl)-1H-benzo[d]imidazole-1,2-diamine hydrochloride], for which the results for the IC50 in experiment [1] and in experiment [2] were < 100 nM and 100 to 1000 nM, respectively.

Take `CNn1c(Nc2c[nH]c3c(F)cc(F)cc23)nc2cc(C(F)(F)F)cc(F)c21` [Example 13, N2-(5,7-difluoro-1H-indol-3-yl)-7-fluoro-N1-methyl-5-(trifluoromethyl)-1H-benzo[d]imidazole-1,2-diamine hydrochloride]: the IC50 in experiment [1] was < 100 nM; in experiment [2], < 10 nM.

On to `CNn1c(Nc2c[nH]c3ccc(C)c(F)c23)nc2cc(C(F)(F)F)ccc21` [Example 17, N2-(4-fluoro-5-methyl-1H-indol-3-yl)-N1-methyl-5-(trifluoromethyl)-1H-benzo[d]imidazole-1,2-diamine hydrochloride], for which the IC50 was < 100 nM in experiment [1] and < 10 nM in experiment [2].
